# Patent US7982049B2, “α-form or β-form crystal of acetanilide derivative” (Astellas Pharma Inc., priority 2001, dated 2011)
# “Also recorded” adds a separate entry of the source. Counter-ions that a name gives are not always drawn.
# Assays:
# [1] = Hygroscopicity test (VTI SGA-100); format: physicochemical; settings: for hygroscopicity (in words): 5 to 95% of relative humidity; for relative humidity from which an increase in the weight is observed: measurement interval 5% of relative humidity; for stability of the crystal (in words): judged with the hygroscopicity result
# Experimental: The hygroscopicity was measured using VTI SGA-100 under the following conditions. Temperature: 25° C., measurement range: from 5 to 95% of relative humidity, measurement interval: 5% of relative humidity.
# Male kk mice = assay: Hypoglycemic test in kk mice (insulin resistance model: obesity and hyperglycemia); format: in vivo; settings: oral, once daily for 7 days, blood glucose 15 to 18 hours after final administration, n=6
# Experimental: Hypoglycemic Test in kk Mice (Insulin Resistance Model: Obesity and Hyperglycemia) Male kk mice (blood glucose level: 200 mg/dL or more) were measured for blood glucose level under feeding and then randomly classified into groups. The drug to be tested was compulsorily orally administered once daily for 7 days, and the blood glucose level after 15 to 18 hours from the final administration was compared with that before the administration (n=6). The blood was collected from a tail vein of the mouse using a glass capillary (previously treated with heparin), a protein was removed therefrom, and the amount of glucose in the supernatant (mg/dL) was measured by colorimetric determination by means of the glucose oxidase method. Further, a dose by which the blood glucose level was reduced by 30% as compared with that before the administration of the drug to be tested was expressed as an ED30 value.
# [2] = Solubility in recrystallization solvent; format: physicochemical; settings: 37% to 50% ethanol aqueous solution, as compared with the α-form crystal
# [3] = 25° C., listed as (R)-2-(2-aminothiazol-1-4-yl)-4′-[2-[(2-hydroxy-2-phenylethyl)amino]ethyl]-aceta, dihydrochloride
"hygroscopicity (in words) ([1]; 25° C., dihydrochloride)","hygroscopicity (in words) [1, 3]","hygroscopicity (in words) ([1]; 25° C., listed as (R)-2-(2-aminothiazol-4-yl)-4′-[2-[(2-hydroxy-2-phenylethyl)amino]ethyl]-acetani, dihydrochloride)","hygroscopicity (in words) ([1]; 25° C., listed as dihydrochloride, dihydrochloride)","moisture held ([1]; 25° C., at a relative humidity of 90%)","relative humidity from which an increase in the weight is observed ([1]; 25° C., dihydrochloride) [%]","relative humidity from which an increase in the weight is observed [1, 3]",stability of the crystal (in words) ([1]; dihydrochloride),"stability of the crystal (in words) ([1]; listed as (R)-2-(2-aminothiazol-4-yl)-4′-[2-[(2-hydroxy-2-phenylethyl)amino]ethyl]-acetani, dihydrochloride)","stability of the crystal (in words) ([1]; listed as dihydrochloride, dihydrochloride)","moisture-holding amount ([1]; 25° C., over the entire range of relative humidity from 5% to 95%)",relative humidity from which an increase in the weight is observed ([1]; 25° C.),"moisture held ([1]; 25° C., relative humidity not stated for the value (measurement range 5 to 95%))",solubility in a recrystallization solvent [2],Structure (SMILES),hygroscopicity (in words) ([1]; 25° C.),stability of the crystal (in words) [1],ED30 value (dose by which the blood glucose level was reduced by 30% as compared with that before the administration) (Male kk mice)
strongly hygroscopic,strong hygroscopicity,strong hygroscopicity,strong hygroscopicity,about 14%,80,about 80%,unstable,unstable,unstable,,,,,"Nc1nc(CC(=O)Nc2ccc(CCNC[C@H](O)c3ccccc3)cc2)cs1 [dihydrochloride crystal, (R)-2-(2-aminothiazol-4-yl)-4′-[2-[(2-hydroxy-2-phenylethyl)amino]ethyl]-acetanilide dihydrochloride, reference compound]",,,
,,,,,,,,,,not more than 0.2%,,,,"Nc1nc(CC(=O)Nc2ccc(CCNC[C@H](O)c3ccccc3)cc2)cs1 [α-form crystal, (R)-2-(2-aminothiazol-4-yl)-4′-[2-[(2-hydroxy-2-phenylethyl)amino]ethyl]acetanilide]",not exhibiting hygroscopicity; also recorded: does not exhibit hygroscopicity; also recorded: did not exhibit hygroscopicity,stable; also recorded: excellent in stability,not more than 3.5 mg/kg/day
,,,,,,,,,,,about 20%,about 3%,high solubility,"Nc1nc(CC(=O)Nc2ccc(CCNC[C@H](O)c3ccccc3)cc2)cs1 [β-form crystal, (R)-2-(2-aminothiazol-4-yl)-4′-[2-[(2-hydroxy-2-phenylethyl)amino]ethyl]acetanilide]",weak hygroscopicity,,
